BigSolDB 2.1

COc1cc(Cl)nc(N)n1
Details	solubility (mole fraction)
in 1,4-dioxane, 283.15 K	0.0229
in 1,4-dioxane, 288.15 K	0.0264
in 1,4-dioxane, 293.15 K	0.0316
in 1,4-dioxane, 298.15 K	0.0367
in 1,4-dioxane, 303.15 K	0.0422
in 1,4-dioxane, 308.15 K	0.0493
in 1,4-dioxane, 313.15 K	0.0569
in 1,4-dioxane, 318.15 K	0.0648
in 1,4-dioxane, 323.15 K	0.0746
in DMF, 273.15 K	0.0496
in DMF, 278.15 K	0.0544
in DMF, 283.15 K	0.0595
in DMF, 288.15 K	0.0648
in DMF, 293.15 K	0.0712
in DMF, 298.15 K	0.0775
in DMF, 303.15 K	0.0846
in DMF, 308.15 K	0.0926
in DMF, 313.15 K	0.101
in DMF, 318.15 K	0.11
in DMF, 323.15 K	0.12
in acetone, 273.15 K	0.0076
in acetone, 278.15 K	0.00947
in acetone, 283.15 K	0.0117
in acetone, 288.15 K	0.0143
in acetone, 293.15 K	0.0174
in acetone, 298.15 K	0.0211
in acetone, 303.15 K	0.0255
in acetone, 308.15 K	0.0302
in acetone, 313.15 K	0.0358
in acetone, 318.15 K	0.0422
in acetone, 323.15 K	0.0492
in acetonitrile, 273.15 K	0.00136
in acetonitrile, 278.15 K	0.00174
in acetonitrile, 283.15 K	0.00223
in acetonitrile, 288.15 K	0.00276
in acetonitrile, 293.15 K	0.00345
in acetonitrile, 298.15 K	0.00426
in acetonitrile, 303.15 K	0.00523
in acetonitrile, 308.15 K	0.00633
in acetonitrile, 313.15 K	0.00773
in acetonitrile, 318.15 K	0.00927
in acetonitrile, 323.15 K	0.0111
in chloroform, 273.15 K	0.00237
in chloroform, 278.15 K	0.00306
in chloroform, 283.15 K	0.00389
in chloroform, 288.15 K	0.00492
in chloroform, 293.15 K	0.00612
in chloroform, 298.15 K	0.00758
in chloroform, 303.15 K	0.00924
in chloroform, 308.15 K	0.0114
in chloroform, 313.15 K	0.0138
in chloroform, 318.15 K	0.0166
in chloroform, 323.15 K	0.0197
in ethanol, 273.15 K	0.00128
in ethanol, 278.15 K	0.00163
in ethanol, 283.15 K	0.00206
in ethanol, 288.15 K	0.00259
in ethanol, 293.15 K	0.00323
in ethanol, 298.15 K	0.00396
in ethanol, 303.15 K	0.00488
in ethanol, 308.15 K	0.00598
in ethanol, 313.15 K	0.00733
in ethanol, 318.15 K	0.00886
in ethanol, 323.15 K	0.0106
in ethyl acetate, 273.15 K	0.00547
in ethyl acetate, 278.15 K	0.00687
in ethyl acetate, 283.15 K	0.00856
in ethyl acetate, 288.15 K	0.0105
in ethyl acetate, 293.15 K	0.0129
in ethyl acetate, 298.15 K	0.0155
in ethyl acetate, 303.15 K	0.0188
in ethyl acetate, 308.15 K	0.023
in ethyl acetate, 313.15 K	0.0276
in ethyl acetate, 318.15 K	0.033
in ethyl acetate, 323.15 K	0.0389
in ethylbenzene, 273.15 K	0.000515
in ethylbenzene, 278.15 K	0.000689
in ethylbenzene, 283.15 K	0.000887
in ethylbenzene, 288.15 K	0.00115
in ethylbenzene, 293.15 K	0.0015
in ethylbenzene, 298.15 K	0.00184
in ethylbenzene, 303.15 K	0.00238
in ethylbenzene, 308.15 K	0.00299
in ethylbenzene, 313.15 K	0.00367
in ethylbenzene, 318.15 K	0.00462
in ethylbenzene, 323.15 K	0.00567
in isopropanol, 273.15 K	0.00113
in isopropanol, 278.15 K	0.00149
in isopropanol, 283.15 K	0.0019
in isopropanol, 288.15 K	0.00241
in isopropanol, 293.15 K	0.00302
in isopropanol, 298.15 K	0.00377
in isopropanol, 303.15 K	0.0046
in isopropanol, 308.15 K	0.00574
in isopropanol, 313.15 K	0.00701
in isopropanol, 318.15 K	0.00857
in isopropanol, 323.15 K	0.0105
in methanol, 273.15 K	0.00126
in methanol, 278.15 K	0.00159
in methanol, 283.15 K	0.00199
in methanol, 288.15 K	0.00246
in methanol, 293.15 K	0.0031
in methanol, 298.15 K	0.00375
in methanol, 303.15 K	0.00463
in methanol, 308.15 K	0.00555
in methanol, 313.15 K	0.00675
in methanol, 318.15 K	0.00809
in methanol, 323.15 K	0.00962
in n-propanol, 273.15 K	0.00122
in n-propanol, 278.15 K	0.00158
in n-propanol, 283.15 K	0.00201
in n-propanol, 288.15 K	0.00256
in n-propanol, 293.15 K	0.00323
in n-propanol, 298.15 K	0.00407
in n-propanol, 303.15 K	0.00502
in n-propanol, 308.15 K	0.00618
in n-propanol, 313.15 K	0.0075
in n-propanol, 318.15 K	0.00916
in n-propanol, 323.15 K	0.0113
in toluene, 273.15 K	0.000694
in toluene, 278.15 K	0.000889
in toluene, 283.15 K	0.00115
in toluene, 288.15 K	0.00148
in toluene, 293.15 K	0.0019
in toluene, 298.15 K	0.00241
in toluene, 303.15 K	0.003
in toluene, 308.15 K	0.00374
in toluene, 313.15 K	0.00463
in toluene, 318.15 K	0.00573
in toluene, 323.15 K	0.00703
